Data on three molecules can be found in patent US20170239239A1, “Method for Inducing a Sustained Immune Response” (Immune Therapeutics Inc., priority 2016, published 2017).

The test system of one series is IBS patients. Kind of series: Open-label study of PTI-901 in 42 IBS patients. In kind it is in vivo, human. The protocol:
Forty-two IBS patients participated in an open-label study. Participants received 0.5 mg PTI-901/day for 4 weeks and were evaluated during baseline, during treatment, and at 4-week follow-up. Patients recorded degree of abdominal pain, stool urgency, consistency, and frequency. Primary outcomes were number of pain-free days and overall symptom relief, evaluated by a global assessment score. Data were analyzed per protocol. Global assessment improved in 76% of 42 patients. During treatment, the mean weekly number of pain-free days increased from 0.5+/−1 to 1.25+/−2.14 (P=0.011).

The subject of series [1] is advanced pancreatic cancer. Conditions: historical controls; cited from earlier work.

In the series on IBS patients (0.5 mg/day for 4 weeks, of 42 patients), `Cl.O=C1CC[C@@]2(O)[C@H]3Cc4ccc(O)c5c4[C@@]2(CCN3CC2CC2)[C@H]1O5` [PTI-901] gave a Global assessment improved of 76%. In addition, the “mean weekly number of pain-free days” value in the series with IBS patients (during treatment, from 0.5+/−1, P=0.011) is on record as 1.25+/−2.14. Further, the adverse reactions result in the series on IBS patients (human, in vivo) is “no significant adverse reactions”.

Turning to `O=c1[nH]cc(F)c(=O)[nH]1` [5-fluorouracil (5-FU), 5-fluorouracil], the Clinical benefit response in series [1] is on record as 4.8%.

On to `Nc1ccn([C@@H]2O[C@H](CO)[C@@H](O)C2(F)F)c(=O)n1` [gemcitabine], for which the Clinical benefit response in series [1] was 23.8%.
